Measurements taken from patent publication US12410123B2, “N-[8-(2-hydroxybenzoyl)amino]potassium octanoate crystal polymorph, and preparation method therefor and use thereof” (SCIWIND BIOSCIENCES CO., LTD., priority 2020, dated 2025).

Key:
Type in all cases: physicochemical
[1] = Solution stability of different crystal forms of PNAC in aqueous solution (500 mg/mL); conditions: 500 mg/mL in purified water
Description: The stability differences between different salt forms and different crystal forms in aqueous solution under the condition of high concentration (500 mg/mL) were compared, and the results are shown in Table 5 (there is no difference in the dissolution and solution storage process of the samples of PNAC crystal forms I-IV).

[2] = Stability during preparation (grinding, tableting, airflow crushing; XRPD)
From the text: Three groups of solid samples were characterized by XRPD to evaluate their physical stability.

[3] = Solid-state stability of PNAC crystal forms (storage; XRPD and HPLC)
Description: The third group was kept under the conditions of 25° C. and 60% relative humidity for 2 weeks to obtain a solid sample, and then the three groups of solid samples were respectively evaluated for physical and chemical stability by XRPD and HPLC assay.
The purity of main peak was calculated by normalization method.

[4] = Airflow crushing (injection pressure 0.4 MPa, pulverization pressure 0.2 MPa)
[5] = solid, 60° C. for 24 h, 40° C. and 75% relative humidity for two weeks, 25° C. and 60% relative humidity for 2 weeks

| SMILES | storage time at which flocs began to appear in the solution ([1]; 4° C.) | storage time at which flocs began to appear in the solution ([1]; room temperature) | change of crystal form after grinding, tableting and airflow crushing (XRPD) [2] | crystal form after treatment (XRPD) [2, 4] | crystal form after treatment (XRPD) ([2]; Manual grinding (10 min)) | crystal form after treatment (XRPD) ([2]; Tableting (pressure of 3 kN)) | overall solid-state stability (conclusion from Table 15) [3] | crystal form after treatment (XRPD) ([3]; 25° C./60% RH, 2 W) | crystal form after treatment (XRPD) ([3]; 25° C./75% RH, 2 W) | crystal form after treatment (XRPD) ([3]; 60° C., 24 h) | crystal form after storage (XRPD) [3, 5] | relative purity (HPLC) after storage [3, 5] |
| --- | --- | --- | --- | --- | --- | --- | --- | --- | --- | --- | --- | --- |
| O=C([O-])CCCCCCCNC(=O)c1ccccc1O.[Na+] [SNAC, monosodium N-[8-(2-hydroxybenzoyl)amino]octanoate] | 0.5 h | 1 h |  |  |  |  |  |  |  |  |  |  |
| O=C([O-])CCCCCCCNC(=O)c1ccccc1O.[K+] [crystal Form I, Potassium N-[8-(2-hydroxybenzoyl)amino]octanoate] |  |  | does not change | crystal Form I | crystal Form I | crystal Form I | very stable | crystal Form II | crystal Form II | crystal Form I |  |  |
| O=C([O-])CCCCCCCNC(=O)c1ccccc1O.[K+] [crystal Form II, Potassium N-[8-(2-hydroxybenzoyl)amino]octanoate] |  |  | does not change | crystal Form II | crystal Form II | crystal Form II | very stable | crystal Form II | crystal Form II | crystal Form II | the crystal form has not changed | 100% |
| O=C([O-])CCCCCCCNC(=O)c1ccccc1O.[K+] [crystal Form III, Potassium N-[8-(2-hydroxybenzoyl)amino]octanoate] |  |  |  |  |  |  |  | crystal Form II | crystal Form II | crystal Form I |  |  |
| O=C([O-])CCCCCCCNC(=O)c1ccccc1O.[K+] [crystal Form IV, Potassium N-[8-(2-hydroxybenzoyl)amino]octanoate] |  |  |  | crystal Form IV | crystal Form IV | crystal Form IV |  | crystal Form II | crystal Form II | crystal Form I |  |  |
